Measured values taken from article doi:10.1101/2025.03.04.641560v1 (biorxiv, 2025).
Like-named read-outs stand apart in the source and are kept apart here.

Key:
Td2F2 [1] = test: fluorescence plate reader, Michaelis-Menten fit; type: biochemical, uncultured bacterium; details: 10 mM HEPES pH 7.4
Td2F2 [2] = details: 10 mM HEPES pH 7.4; Mutant A
β-galactosidase (LacZ) = β-galactosidase (LacZ) (Escherichia coli, UniProt P00722); test: fluorescence plate reader, Michaelis-Menten fit; type: biochemical; details: 10 mM HEPES pH 7.4
Chain of β-galactosidase (LacZ) (P00722 2-1024): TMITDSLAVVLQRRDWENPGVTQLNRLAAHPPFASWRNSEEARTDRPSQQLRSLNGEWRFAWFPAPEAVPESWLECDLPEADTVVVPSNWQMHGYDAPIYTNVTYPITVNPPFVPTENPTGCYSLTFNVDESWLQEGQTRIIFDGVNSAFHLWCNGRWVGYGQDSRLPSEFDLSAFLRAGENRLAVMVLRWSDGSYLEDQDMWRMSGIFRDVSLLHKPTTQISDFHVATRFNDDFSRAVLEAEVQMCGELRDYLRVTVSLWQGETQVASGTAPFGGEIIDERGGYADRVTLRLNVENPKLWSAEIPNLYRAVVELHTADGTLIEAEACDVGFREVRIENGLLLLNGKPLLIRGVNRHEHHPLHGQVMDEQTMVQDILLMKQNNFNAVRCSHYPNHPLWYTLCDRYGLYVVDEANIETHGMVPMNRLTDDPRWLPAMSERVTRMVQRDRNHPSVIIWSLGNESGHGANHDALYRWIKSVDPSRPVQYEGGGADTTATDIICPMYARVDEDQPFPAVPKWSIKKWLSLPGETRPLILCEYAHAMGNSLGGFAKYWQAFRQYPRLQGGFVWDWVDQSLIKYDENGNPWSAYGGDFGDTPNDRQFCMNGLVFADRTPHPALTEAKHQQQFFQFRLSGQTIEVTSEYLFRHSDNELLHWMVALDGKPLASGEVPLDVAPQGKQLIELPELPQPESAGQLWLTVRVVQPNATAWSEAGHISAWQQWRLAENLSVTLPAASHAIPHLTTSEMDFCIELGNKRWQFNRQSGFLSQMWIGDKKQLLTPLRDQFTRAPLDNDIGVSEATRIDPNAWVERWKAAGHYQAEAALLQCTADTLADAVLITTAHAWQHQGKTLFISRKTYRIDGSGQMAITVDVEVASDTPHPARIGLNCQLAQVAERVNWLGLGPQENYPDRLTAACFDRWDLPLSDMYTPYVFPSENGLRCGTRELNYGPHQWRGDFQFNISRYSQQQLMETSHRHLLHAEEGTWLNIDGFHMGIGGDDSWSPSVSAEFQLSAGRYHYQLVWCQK

Row | Km (β-galactosidase (LacZ)) | SMILES | Km (Td2F2 [1]) | Km (Td2F2 [2])
1 | – | C[C@H]1O[C@@H](Oc2ccc3c(c2)Oc2cc(NCC(F)(F)F)ccc2C32OCc3ccccc32)[C@H](O)[C@@H](O)[C@H]1O (stereo partly drawn) [HMRef-β-D-Fuc, HMRef-β-D-fucose] | 190 µM | 3.7 µM
2 | 73 µM | OC[C@H]1O[C@@H](Oc2ccc3c(c2)Oc2cc(NCC(F)(F)F)ccc2C32OCc3ccccc32)[C@H](O)[C@@H](O)[C@H]1O (stereo partly drawn) [HMRef-β-D-Gal] | – | –
